In article PMC4405029 (Bioorganic & medicinal chemistry letters, 2015):

Tests used:
Assay in all cases: Electrical cell-substrate impedance sensing
Assay type in all cases: cell-based
[1] = molecular target: T1, recombinant EP3 receptor (Homo sapiens, UniProt P43115); settings: ECIS, EP3 expressed in CHO cells
T1 sequence (P43115 1-390): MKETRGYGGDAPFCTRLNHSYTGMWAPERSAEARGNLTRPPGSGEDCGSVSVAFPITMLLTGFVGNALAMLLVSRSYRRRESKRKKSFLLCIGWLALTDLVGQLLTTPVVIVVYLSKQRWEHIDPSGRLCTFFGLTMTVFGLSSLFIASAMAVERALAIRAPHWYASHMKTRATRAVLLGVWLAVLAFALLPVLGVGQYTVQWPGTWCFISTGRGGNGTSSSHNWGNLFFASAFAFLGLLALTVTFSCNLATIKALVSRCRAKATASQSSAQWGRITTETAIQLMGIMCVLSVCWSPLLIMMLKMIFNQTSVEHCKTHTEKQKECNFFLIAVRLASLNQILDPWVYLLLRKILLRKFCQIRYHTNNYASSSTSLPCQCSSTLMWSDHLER

[2] = system: recombinant EP4 receptor; settings: ECIS, EP4 expressed in CHO cells
[3] = molecular target: T2, recombinant EP1 receptor (Homo sapiens, UniProt P34995); settings: ECIS, EP1 expressed in CHO cells
T2 sequence (P34995 1-402): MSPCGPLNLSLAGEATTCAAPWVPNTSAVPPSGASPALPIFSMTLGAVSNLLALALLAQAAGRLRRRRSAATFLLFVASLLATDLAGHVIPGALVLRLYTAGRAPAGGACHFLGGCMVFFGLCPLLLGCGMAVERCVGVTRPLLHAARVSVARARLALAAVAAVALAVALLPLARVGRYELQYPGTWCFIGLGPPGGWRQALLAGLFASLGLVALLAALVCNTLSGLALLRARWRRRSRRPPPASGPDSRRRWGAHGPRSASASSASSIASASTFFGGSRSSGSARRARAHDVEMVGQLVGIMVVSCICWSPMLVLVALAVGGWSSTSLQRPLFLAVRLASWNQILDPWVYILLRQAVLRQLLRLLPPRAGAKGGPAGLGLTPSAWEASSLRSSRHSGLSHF

Activation of EP3 receptor (cell impedance) [1]	Activation of EP1 receptor (cell impedance) [3]	Compound	Activation of EP4 receptor (cell impedance) [2]
did not activate	did not activate	CCCCC[C@H](O)/C=C/[C@H]1[C@H](O)CC(=O)[C@@H]1C/C=C\CCCC(=O)NCCO [PGE2-EA, prostaglandin-ethanolamide]	did not activate
did not activate	did not activate	O=C(CCC/C=C\C[C@H]1C(=O)C[C@@H](O)[C@@H]1/C=C/[C@@H](O)CCc1ccccc1)NCCO [12a]	did not activate

Compound	Activation of EP3 receptor (cell impedance) [1]	Activation of EP1 receptor (cell impedance) [3]	Activation of EP4 receptor (cell impedance) [2]
CCCCC[C@H](O)/C=C/[C@H]1[C@H](O)CC(=O)[C@@H]1C/C=C\CCCC(=O)O [PGE2]	rapid change in impedance	rapid change in impedance	rapid change in impedance
